Data taken from publication PMC5278707, “Structure-Activity Relationships of a Series of Echinocandins and the Discovery of CD101, a Highly Stable and Soluble Echinocandin with Distinctive Pharmacokinetic Properties” (Antimicrobial Agents and Chemotherapy, 2017).
Values after ≈ are worked out from the molar mass of the structure shown. Like-named read-outs stand apart in the source and are kept apart here.

How the values were obtained:
[1] = system: Aspergillus clavatus ATCC 10058; assay: CLSI broth microdilution (M38-A2) MEC/MIC; type: cell-based; conditions: read at 68 h
Procedure: All yeast and mold isolates were obtained from the American Type Culture Collection (ATCC). Isolates were plated on an agar medium to verify purity, and single colonies were picked. Aspergillus isolates were resubcultured on potato dextrose slants and incubated for 7 days at 35°C. Candida isolates were streaked on SDA plates and incubated for 24 h at 35°C. RPMI 1640 medium (HyClone Laboratories, Logan, UT) and the inoculum for each organism were prepared according to Clinical and Laboratory Standards Institute (CLSI) guidelines ([27][–][29]). Stock solutions for all test articles were prepared in 100% dimethyl sulfoxide (DMSO). Susceptibility testing was performed using CLSI broth microdilution methods for Candida (M27-A3) and Aspergillus (M38-A2). Amphotericin B was tested at a range of 0.06 to 64 μg/ml; all other antifungal agents were tested at 0.015 to 16 μg/ml. […] MIC values are reported as the lowest drug concentration to yield a 50% reduction in the growth of Candida species tested compared to the control well. Minimum effective concentration (MEC) values are reported as the lowest drug concentration to yield the stunted hyphal growth of Aspergillus species tested compared to that of the control well.

[2] = system: Aspergillus fumigatus ATCC MYA-3626; assay: CLSI broth microdilution (M38-A2) MEC/MIC; type: cell-based; conditions: 48 h
Procedure: (§1) All yeast and mold isolates were obtained from the American Type Culture Collection (ATCC). Isolates were plated on an agar medium to verify purity, and single colonies were picked. Aspergillus isolates were resubcultured on potato dextrose slants and incubated for 7 days at 35°C. Candida isolates were streaked on SDA plates and incubated for 24 h at 35°C. RPMI 1640 medium (HyClone Laboratories, Logan, UT) and the inoculum for each organism were prepared according to Clinical and Laboratory Standards Institute (CLSI) guidelines ([27][–][29]). Stock solutions for all test articles were prepared in 100% dimethyl sulfoxide (DMSO). Susceptibility testing was performed using CLSI broth microdilution methods for Candida (M27-A3) and Aspergillus (M38-A2). Amphotericin B was tested at a range of 0.06 to 64 μg/ml; all other antifungal agents were tested at 0.015 to 16 μg/ml. Plates were incubated at 35°C and were read from the bottom using a plate viewer after 24 and 48 h for Candida and after 48 h for Aspergillus. MIC values are reported as the lowest drug concentration to yield a 50% reduction in the growth of Candida species tested compared to the control well. Minimum effective concentration (MEC) values are reported as the lowest drug concentration to yield the stunted hyphal growth of Aspergillus species tested compared to that of the control well.

[3] = system: Aspergillus ochraceus ATCC 96919; assay: CLSI broth microdilution (M38-A2) MEC/MIC; type: cell-based
Procedure: as §1

[4] = system: Aspergillus flavus ATCC 22546; assay: CLSI broth microdilution (M38-A2) MEC/MIC; type: cell-based
Procedure: as §1

[5] = system: Aspergillus fumigatus ATCC 204305; assay: CLSI broth microdilution (M38-A2) MEC/MIC; type: cell-based
Procedure: as §1

[6] = system: Aspergillus candidus ATCC 13686; assay: CLSI broth microdilution (M38-A2) MEC/MIC; type: cell-based
Procedure: as §1

[7] = system: Aspergillus niger ATCC 16888; assay: CLSI broth microdilution (M38-A2) MEC/MIC; type: cell-based
Procedure: as §1

[8] = system: Candida lusitaniae ATCC 34134; assay: CLSI broth microdilution (M27-A3) MIC; type: cell-based; conditions: Clavispora lusitaniae, ATCC34134, 50% reduction in growth, read-out: MIC
Procedure: as §1

[9] = system: Candida albicans ATCC 90028; assay: CLSI broth microdilution (M27-A3) MIC; type: cell-based; conditions: 50% reduction in growth
Procedure: as §1

[10] = system: Candida glabrata ATCC 90030; assay: CLSI broth microdilution (M27-A3) MIC; type: cell-based; conditions: Nakaseomyces glabratus
Procedure: as §1

[11] = system: Candida tropicalis ATCC 90874; assay: CLSI broth microdilution (M27-A3) MIC; type: cell-based; conditions: 50% reduction in growth
Procedure: as §1

[12] = system: Candida krusei ATCC 14243; assay: CLSI broth microdilution (M27-A3) MIC; type: cell-based; conditions: Pichia kudriavzevii, ATCC14243, 50% reduction in growth
Procedure: as §1

[13] = system: Candida guilliermondii ATCC 34134; assay: CLSI broth microdilution (M27-A3) MIC; type: cell-based; conditions: Meyerozyma guilliermondii, ATCC34134, 50% reduction in growth
Procedure: as §1

[14] = system: Candida parapsilosis ATCC 22019; assay: CLSI broth microdilution (M27-A3) MIC; type: cell-based; conditions: Lodderomyces parapsilosis, ATCC22019, 50% reduction in growth
Procedure: as §1

[15] = system: Aspergillus spp.; assay: CLSI broth microdilution (M38-A2) MEC, whole panel; type: cell-based; conditions: 48 h, summary of Table 3
Procedure: as §1

[16] = single-dose pharmacokinetics in beagle dogs; conditions: male, beagle, dog, in vivo, iv, 1.4 mg/kg
Procedure: Four male, nonnaive beagle dogs received a single i.v. infusion (1.4 mg/kg) of test article over 10 min via a catheter placed in the cephalic vein. Blood draws (1.0 ml) were taken at 0.083, 0.33, 0.75, 1.5, 4.5, 12, 24, and 48 h. An additional blood draw at 72 h was obtained for CD101. Blood draws were taken from the jugular vein and were collected into K3 EDTA tubes. Following blood collection, the samples were immediately inverted several times and were held on wet ice pending centrifugation. The samples were centrifuged within ∼30 min of collection under refrigeration (∼5°C for ∼10 min at ∼2,000 g) to obtain plasma. The plasma samples were frozen immediately on dry ice after separation and were stored at approximately −70°C until analysis. Levels of test article in the plasma samples were measured by quantitative liquid chromatography-tandem mass spectrometry (LC-MS/MS) analysis compared to a calibration curve and an internal standard. Pharmacokinetic parameters were calculated from the plasma concentration-time data using standard noncompartmental methods and utilizing WinNonlin analysis software.

[17] = system: Candida albicans R303; assay: mouse model of disseminated candidiasis, fungal burden in kidneys; type: in vivo; conditions: kidneys at 24 h; for fungal burden relative to limit of detection: neutropenic CD-1 mice, 0.5, 1.5 or 4.5 mg/kg; for reductions in fungal burden vs infected control (statistical significance): neutropenic CD-1 mice, 0.5, 1.5 or 4.5 mg/kg 2 h after inoculation
Procedure: Candida albicans R303 was grown on Sabouraud dextrose agar (SDA) plates for 24 h at 35°C. Colonies were transferred to phosphate-buffered saline (PBS) and diluted to 3.8 × 10^5 CFU/ml. Female CD-1 mice (Charles River Laboratories, Portage, MI) were rendered neutropenic via injection with cyclophosphamide (150 mg/kg) 5 days and 2 days prior to inoculation. Each animal was infected by injecting 0.1 ml of inoculum into the tail vein. In the treatment groups, animals received 0.5, 1.5, or 4.5 mg/kg of test article 2 h after inoculation. Two groups of untreated, infected controls were used to evaluate fungal burden: at 2 h when test articles were administered in the treatment groups and at 24 h when the treatment groups were sacrificed. Kidneys were harvested at 2 h in one untreated control group and at 24 h in all other groups. The kidneys were homogenized in 2 ml of sterile phosphate-buffered saline, and 0.1-ml aliquots were spread on SDA plates and incubated at 35°C overnight. Fungal burden was determined based on the log10 C. albicans CFU counts from paired kidneys. Data were analyzed using a one-way analysis of variance (ANOVA) and the Dunnett multiple comparisons test comparing the test articles to the infected control group (GraphPad InStat version 3.1; GraphPad Software, San Diego, CA).

Compound	MIC ([8]; 24 h) [µg/mL]	MIC ([8]; 48 h) [µg/mL]	MIC ([9]; ATCC90028, 24 h) [µg/mL]	MIC ([9]; ATCC90028, 48 h) [µg/mL]	MIC ([11]; ATCC90874, 24 h) [µg/mL]	MIC ([11]; ATCC90874, 48 h) [µg/mL]	MIC ([12]; 24 h) [µg/mL]	MIC ([12]; 48 h) [µg/mL]	MIC ([13]; 24 h) [µg/mL]	MIC ([13]; 48 h) [µg/mL]	MIC ([14]; 24 h) [µg/mL]	MIC ([14]; 48 h) [µg/mL]	Vd [16] [L/kg]	half-life [16] [h]	fungal burden relative to limit of detection [17]	reductions in fungal burden vs infected control (statistical significance) [17]	further results
C[C@@H]1[C@H](O)[C@@H](C)/C=C/C=C/C=C/C=C/C=C/C=C/C=C/[C@H](O[C@@H]2O[C@H](C)[C@@H](O)[C@H](N)[C@@H]2O)C[C@@H]2O[C@](O)(C[C@@H](O)C[C@@H](O)[C@H](O)CC[C@@H](O)C[C@@H](O)CC(=O)O[C@H]1C)C[C@H](O)[C@H]2C(=O)O [Amphotericin B, amphotericin B]	≤ 0.06	≤ 0.06	≤ 0.06	0.125 (≈ 0.135 µM)	0.25 (≈ 0.271 µM)	0.25 (≈ 0.271 µM)	0.25 (≈ 0.271 µM)	0.5 (≈ 0.541 µM)	≤ 0.06	≤ 0.06	0.25 (≈ 0.271 µM)	0.5 (≈ 0.541 µM)					MIC ([1]; Aspergillus clavatus, ATCC10058): ≤ 0.06 µg/mL; MIC ([2]; Aspergillus fumigatus): 1 µg/mL (≈ 1.08 µM); MIC ([3]; Aspergillus ochraceus, ATCC96919, 48 h): 2 µg/mL (≈ 2.16 µM); MIC ([4]; Aspergillus flavus, ATCC22546, 48 h): 1 µg/mL (≈ 1.08 µM); MIC ([5]; Aspergillus fumigatus, ATCC204305, 48 h): 1 µg/mL (≈ 1.08 µM); MIC ([6]; Aspergillus candidus, ATCC13686, 48 h): ≤ 0.06 µg/mL; MIC ([7]; Aspergillus niger, ATCC16888, 48 h): 0.125 µg/mL (≈ 0.135 µM); MIC ([10]; ATCC90030, 24 h, 50% reduction in growth, read-out: MIC): 0.06 µg/mL (≈ 0.0649 µM); MIC ([10]; ATCC90030, 48 h, 50% reduction in growth, read-out: MIC): 0.25 µg/mL (≈ 0.271 µM)
CC[C@H](C)C[C@H](C)CCCCCCCCC(=O)N[C@H]1C[C@@H](O)[C@@H](NCCN)NC(=O)[C@@H]2[C@@H](O)CCN2C(=O)[C@H]([C@H](O)CCN)NC(=O)[C@H]([C@H](O)[C@@H](O)c2ccc(O)cc2)NC(=O)[C@@H]2C[C@@H](O)CN2C(=O)[C@H]([C@@H](C)O)NC1=O [Caspofungin, caspofungin]	0.25 (≈ 0.229 µM)	0.25 (≈ 0.229 µM)	0.06 (≈ 0.0549 µM)	0.06 (≈ 0.0549 µM)	0.06 (≈ 0.0549 µM)	0.06 (≈ 0.0549 µM)	0.25 (≈ 0.229 µM)	0.5 (≈ 0.457 µM)	0.25 (≈ 0.229 µM)	> 16	0.25 (≈ 0.229 µM)	0.5 (≈ 0.457 µM)					MEC values against all Aspergillus species tested [15]: ≤ 0.125 µg/mL; MEC ([1]; stunted hyphal growth): 0.125 µg/mL; MEC ([2]; stunted hyphal growth): 0.125 µg/mL; MEC ([3]; 48 h, stunted hyphal growth): 0.06 µg/mL; MEC ([4]; 48 h, stunted hyphal growth): 0.06 µg/mL; MEC ([5]; 48 h, stunted hyphal growth): 0.125 µg/mL; MEC ([6]; 48 h, stunted hyphal growth): ≤0.015 µg/mL; MEC ([7]; 48 h, stunted hyphal growth): 0.06 µg/mL; MIC ([10]; ATCC90030, 24 h): 0.125 µg/mL (≈ 0.114 µM); MIC ([10]; ATCC90030, 48 h): 0.125 µg/mL (≈ 0.114 µM)
CCCCCOc1ccc(-c2ccc(-c3ccc(C(=O)N[C@H]4C[C@@H](O)[C@@H](OCCOCCOC)NC(=O)[C@@H]5[C@@H](O)[C@@H](C)CN5C(=O)[C@H]([C@@H](C)O)NC(=O)[C@H]([C@H](O)[C@@H](O)c5ccc(O)cc5)NC(=O)[C@@H]5C[C@@H](O)CN5C(=O)[C@H]([C@@H](C)O)NC4=O)cc3)cc2)cc1 [Compound 2]													0.331	18.9			
CCCCCOc1ccc(-c2ccc(-c3ccc(C(=O)N[C@H]4C[C@@H](O)[C@@H](OCCOCCN)NC(=O)[C@@H]5[C@@H](O)[C@@H](C)CN5C(=O)[C@H]([C@@H](C)O)NC(=O)[C@H]([C@H](O)[C@@H](O)c5ccc(O)cc5)NC(=O)[C@@H]5C[C@@H](O)CN5C(=O)[C@H]([C@@H](C)O)NC4=O)cc3)cc2)cc1 [Compound 3]													0.627	33.7	below the limit of detection for at least one of the doses		
CCCCCOc1ccc(-c2ccc(-c3ccc(C(=O)N[C@H]4C[C@@H](O)[C@@H](OCCOCCO)NC(=O)[C@@H]5[C@@H](O)[C@@H](C)CN5C(=O)[C@H]([C@@H](C)O)NC(=O)[C@H]([C@H](O)[C@@H](O)c5ccc(O)cc5)NC(=O)[C@@H]5C[C@@H](O)CN5C(=O)[C@H]([C@@H](C)O)NC4=O)cc3)cc2)cc1 [Compound 4]													0.361	28.9	below the limit of detection for at least one of the doses	statistically significant (P < 0.01) reductions in fungal burden at all doses	
CCCCCOc1ccc(-c2ccc(-c3ccc(C(=O)N[C@H]4C[C@@H](O)[C@@H](NCCNCCO)NC(=O)[C@@H]5[C@@H](O)[C@@H](C)CN5C(=O)[C@H]([C@@H](C)O)NC(=O)[C@H]([C@H](O)[C@@H](O)c5ccc(O)cc5)NC(=O)[C@@H]5C[C@@H](O)CN5C(=O)[C@H]([C@@H](C)O)NC4=O)cc3)cc2)cc1 [Compound 5]													0.687	21	below the limit of detection for at least one of the doses	statistically significant (P < 0.01) reductions in fungal burden at all doses	
